Laboratory results from US20230002367A1, “BIFUNCTIONAL COMPOUNDS” (Hoffmann-La Roche Inc., priority 2019, published 2023).

Biological target: T1, SMARCA2 (Homo sapiens, UniProt P51531)
T1 construct: endogenous in cells
Experiment: SMARCA2 HiBiT degradation assay (cellular)
Type: cell-based
Details: for Emax: A549, Emax = amount of residual protein remaining in the cell following compound treatment; for DC50: SMARCA2 HiBiT cells, luminescence readout, 11-point titration from 10 μM, 6 hours or 16 hours, read-out: HiBit A549 SMARCA2 IP

T1 sequence (P51531 whole entry): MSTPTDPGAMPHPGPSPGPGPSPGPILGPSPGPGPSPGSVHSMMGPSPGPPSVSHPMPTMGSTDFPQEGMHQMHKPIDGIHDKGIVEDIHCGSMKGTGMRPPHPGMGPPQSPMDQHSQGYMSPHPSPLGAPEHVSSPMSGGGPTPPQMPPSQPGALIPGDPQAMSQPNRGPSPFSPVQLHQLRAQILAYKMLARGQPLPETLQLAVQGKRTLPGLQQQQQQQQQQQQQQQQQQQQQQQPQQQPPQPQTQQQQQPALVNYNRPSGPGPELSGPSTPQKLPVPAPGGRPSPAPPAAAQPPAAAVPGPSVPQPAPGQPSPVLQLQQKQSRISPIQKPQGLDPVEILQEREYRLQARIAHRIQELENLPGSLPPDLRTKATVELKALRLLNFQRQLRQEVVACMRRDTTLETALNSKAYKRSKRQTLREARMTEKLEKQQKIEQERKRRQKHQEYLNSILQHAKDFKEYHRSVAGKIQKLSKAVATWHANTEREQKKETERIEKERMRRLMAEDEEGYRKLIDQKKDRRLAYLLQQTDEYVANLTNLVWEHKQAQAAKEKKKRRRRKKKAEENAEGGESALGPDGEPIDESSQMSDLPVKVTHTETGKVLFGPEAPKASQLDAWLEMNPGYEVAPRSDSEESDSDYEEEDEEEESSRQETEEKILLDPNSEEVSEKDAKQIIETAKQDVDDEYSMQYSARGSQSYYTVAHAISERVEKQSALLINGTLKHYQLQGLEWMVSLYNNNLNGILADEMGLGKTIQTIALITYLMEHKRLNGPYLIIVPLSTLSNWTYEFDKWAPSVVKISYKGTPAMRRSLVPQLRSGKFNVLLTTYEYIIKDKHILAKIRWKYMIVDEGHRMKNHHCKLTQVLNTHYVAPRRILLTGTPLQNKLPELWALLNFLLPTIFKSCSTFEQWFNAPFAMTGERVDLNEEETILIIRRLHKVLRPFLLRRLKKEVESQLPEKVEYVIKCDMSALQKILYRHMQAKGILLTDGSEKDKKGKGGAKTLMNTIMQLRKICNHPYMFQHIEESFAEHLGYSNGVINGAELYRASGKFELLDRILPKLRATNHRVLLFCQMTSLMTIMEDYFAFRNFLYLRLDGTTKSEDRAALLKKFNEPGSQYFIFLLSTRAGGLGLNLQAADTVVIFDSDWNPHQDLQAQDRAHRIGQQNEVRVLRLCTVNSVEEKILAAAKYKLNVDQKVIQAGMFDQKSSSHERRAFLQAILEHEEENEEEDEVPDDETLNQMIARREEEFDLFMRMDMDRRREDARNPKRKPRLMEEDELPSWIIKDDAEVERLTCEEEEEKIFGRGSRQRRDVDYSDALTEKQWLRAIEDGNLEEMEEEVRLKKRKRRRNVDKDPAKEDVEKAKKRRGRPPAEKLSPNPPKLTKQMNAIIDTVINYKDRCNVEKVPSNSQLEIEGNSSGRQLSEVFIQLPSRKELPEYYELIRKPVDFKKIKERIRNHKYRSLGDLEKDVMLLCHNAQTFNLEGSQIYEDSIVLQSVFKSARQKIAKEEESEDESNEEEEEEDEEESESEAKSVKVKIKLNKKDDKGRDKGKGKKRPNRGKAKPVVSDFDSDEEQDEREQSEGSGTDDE

Structure (SMILES) | Emax [%] | DC50 [nM]
Cc1ncsc1-c1ccc([C@H](C)NC(=O)[C@@H]2C[C@@H](O)CN2C(=O)[C@@H](NC(=O)CCCCCC(=O)N(C)CC(COc2cc(-c3ccccc3O)nnc2N)c2ccccc2)C(C)(C)C)cc1 (mixture of isomers) [Example 21, N′-[3-[3-amino-6-(2-hydroxyphenyl)pyridazin-4-yl]oxy-2-phenyl-propyl]-N′-methyl-N-[rac-(1S)-2,2-dimethyl-1-[rac-(2S,4R)-4-hydroxy-2-[[rac-(1S)-1-[4-(4-methylthiazol-5-yl)phenyl]ethyl]carbamoyl]pyrrolidine-1-carbonyl]propyl]heptanediamide] | 19 | 1010
Cc1ncsc1-c1ccc([C@H](C)NC(=O)[C@@H]2C[C@@H](O)CN2C(=O)[C@@H](NC(=O)CCCCCCCCCCC(=O)N(C)CC(COc2cc(-c3ccccc3O)nnc2N)c2ccccc2)C(C)(C)C)cc1 (mixture of isomers) [Example 22, N′-[3-[3-amino-6-(2-hydroxyphenyl)pyridazin-4-yl]oxy-2-phenyl-propyl]-N′-methyl-N-[rac-(1S)-2,2-dimethyl-1-[rac-(2S,4R)-4-hydroxy-2-[[rac-(1S)-1-[4-(4-methylthiazol-5-yl)phenyl]ethyl]carbamoyl]pyrrolidine-1-carbonyl]propyl]dodecanediamide] | 27 | 455
Cc1ncsc1-c1ccc([C@H](C)NC(=O)[C@@H]2C[C@@H](O)CN2C(=O)[C@@H](NC(=O)CCCCCCCCCCCCC(=O)N(C)CC(COc2cc(-c3ccccc3O)nnc2N)c2ccccc2)C(C)(C)C)cc1 (mixture of isomers) [Example 23, N′-[3-[3-amino-6-(2-hydroxyphenyl)pyridazin-4-yl]oxy-2-phenyl-propyl]-N′-methyl-N-[rac-(1S)-2,2-dimethyl-1-[rac-(2S,4R)-4-hydroxy-2-[[rac-(1S)-1-[4-(4-methylthiazol-5-yl)phenyl]ethyl]carbamoyl]pyrrolidine-1-carbonyl]propyl]tetradecanediamide] | 38 | 428
Cc1ncsc1-c1ccc([C@H](C)NC(=O)[C@@H]2C[C@@H](O)CN2C(=O)[C@@H](NC(=O)CCOCCOCCC(=O)N(C)CC(COc2cc(-c3ccccc3O)nnc2N)c2ccccc2)C(C)(C)C)cc1 (mixture of isomers) [Example 24, rac-(2S,4R)-4-hydroxy-1-[rac-(2S)-2-[3-[2-[3-[[3-[3-amino-6-(2-hydroxyphenyl)pyridazin-4-yl]oxy-2-phenyl-propyl]-methyl-amino]-3-oxo-propoxy]ethoxy]propanoylamino]-3,3-dimethyl-butanoyl]-N-[rac-(1S)-1-[4-(4-methylthiazol-5-yl)phenyl]ethyl]pyrrolidine-2-carboxamide] | 42 | 2850
Cc1ncsc1-c1ccc([C@H](C)NC(=O)[C@@H]2C[C@@H](O)CN2C(=O)[C@@H](NC(=O)CCCCCCCCC(=O)N(C)CC(COc2cc(-c3ccccc3O)nnc2N)c2ccccc2)C(C)(C)C)cc1 (mixture of isomers) [Example 25, N′-[3-[3-amino-6-(2-hydroxyphenyl)pyridazin-4-yl]oxy-2-phenyl-propyl]-N′-methyl-N-[rac-(1S)-2,2-dimethyl-1-[rac-(2S,4R)-4-hydroxy-2-[[rac-(1S)-1-[4-(4-methylthiazol-5-yl)phenyl]ethyl]carbamoyl]pyrrolidine-1-carbonyl]propyl]decanediamide] | 19 | 348
Cc1ncsc1-c1ccc([C@H](C)NC(=O)[C@@H]2C[C@@H](O)CN2C(=O)[C@@H](NC(=O)CCCCCC(=O)N(C)CCCN(C)c2ccc(CCOc3cc(-c4ccccc4O)nnc3N)cc2)C(C)(C)C)cc1 (racemic) [Example 26, N′-[3-[4-[2-[3-amino-6-(2-hydroxyphenyl)pyridazin-4-yl]oxyethyl]-N-methyl-anilino]propyl]-N′-methyl-N-[rac-(1S)-2,2-dimethyl-1-[rac-(2S,4R)-4-hydroxy-2-[[rac-(1S)-1-[4-(4-methylthiazol-5-yl)phenyl]ethyl]carbamoyl]pyrrolidine-1-carbonyl]propyl]heptanediamide] | 60 | 1440
Cc1ncsc1-c1ccc([C@H](C)NC(=O)[C@@H]2C[C@@H](O)CN2C(=O)[C@@H](NC(=O)CCCCCCCCCCC(=O)N(C)CCCN(C)c2ccc(CCOc3cc(-c4ccccc4O)nnc3N)cc2)C(C)(C)C)cc1 (racemic) [Example 27, N′-[3-[4-[2-[3-amino-6-(2-hydroxyphenyl)pyridazin-4-yl]oxyethyl]-N-methyl-anilino]propyl]-N′-methyl-N-[rac-(1S)-2,2-dimethyl-1-[rac-(2S,4R)-4-hydroxy-2-[[rac-(1S)-1-[4-(4-methylthiazol-5-yl)phenyl]ethyl]carbamoyl]pyrrolidine-1-carbonyl]propyl]dodecanediamide] | 33 | 330
Cc1ncsc1-c1ccc([C@H](C)NC(=O)[C@@H]2C[C@@H](O)CN2C(=O)[C@@H](NC(=O)CCCCCCCCC(=O)N(C)CCCN(C)c2ccc(CCOc3cc(-c4ccccc4O)nnc3N)cc2)C(C)(C)C)cc1 (racemic) [Example 28, N′-[3-[4-[2-[3-amino-6-(2-hydroxyphenyl)pyridazin-4-yl]oxyethyl]-N-methyl-anilino]propyl]-N′-methyl-N-[rac-(1S)-2,2-dimethyl-1-[rac-(2S,4R)-4-hydroxy-2-[[rac-(1S)-1-[4-(4-methylthiazol-5-yl)phenyl]ethyl]carbamoyl]pyrrolidine-1-carbonyl]propyl]decanediamide] | 46 | 515
Cc1ncsc1-c1ccc([C@H](C)NC(=O)[C@@H]2C[C@@H](O)CN2C(=O)[C@@H](NC(=O)CCCCCC(=O)N2CCN(c3ccc(N4CCCC(Oc5cc(-c6ccccc6O)nnc5N)C4)cc3)CC2)C(C)(C)C)cc1 (mixture of isomers) [Example 32, rac-(2S,4R)-4-hydroxy-1-[rac-(2S)-2-[[7-[4-[4-[3-[3-amino-6-(2-hydroxyphenyl)pyridazin-4-yl]oxy-1-piperidyl]phenyl]piperazin-1-yl]-7-oxo-heptanoyl]amino]-3,3-dimethyl-butanoyl]-N-[rac-(1S)-1-[4-(4-methylthiazol-5-yl)phenyl]ethyl]pyrrolidine-2-carboxamide] | 20 | 119
Cc1ncsc1-c1ccc([C@H](C)NC(=O)[C@@H]2C[C@@H](O)CN2C(=O)[C@@H](NC(=O)CCCCCCCCC(=O)N2CCN(c3ccc(N4CCCC(Oc5cc(-c6ccccc6O)nnc5N)C4)cc3)CC2)C(C)(C)C)cc1 (mixture of isomers) [Example 33, rac-(2S,4R)-4-hydroxy-1-[rac-(2S)-2-[[10-[4-[4-[3-[3-amino-6-(2-hydroxyphenyl)pyridazin-4-yl]oxy-1-piperidyl]phenyl]piperazin-1-yl]-10-oxo-decanoyl]amino]-3,3-dimethyl-butanoyl]-N-[rac-(1S)-1-[4-(4-methylthiazol-5-yl)phenyl]ethyl]pyrrolidine-2-carboxamide] | 22 | 73
Cc1ncsc1-c1ccc([C@H](C)NC(=O)[C@@H]2C[C@@H](O)CN2C(=O)[C@@H](NC(=O)CCOCCOCCC(=O)N2CCN(c3ccc(N4CCCC(Oc5cc(-c6ccccc6O)nnc5N)C4)cc3)CC2)C(C)(C)C)cc1 (mixture of isomers) [Example 34, rac-(2S,4R)-4-hydroxy-1-[rac-(2S)-2-[3-[2-[3-[4-[4-[3-[3-amino-6-(2-hydroxyphenyl)pyridazin-4-yl]oxy-1-piperidyl]phenyl]piperazin-1-yl]-3-oxo-propoxy]ethoxy]propanoylamino]-3,3-dimethyl-butanoyl]-N-[rac-(1S)-1-[4-(4-methylthiazol-5-yl)phenyl]ethyl]pyrrolidine-2-carboxamide] | 47 | 1100
Cc1ncsc1-c1ccc([C@H](C)NC(=O)[C@@H]2C[C@@H](O)CN2C(=O)[C@@H](NC(=O)CCOCCC(=O)N2CCN(c3ccc(CN4CCCC(Oc5cc(-c6ccccc6O)nnc5N)C4)cc3)CC2)C(C)(C)C)cc1 (mixture of isomers) [Example 38, rac-(2S,4R)-4-hydroxy-1-[rac-(2S)-2-[3-[3-[4-[4-[[3-[3-amino-6-(2-hydroxyphenyl)pyridazin-4-yl]oxy-1-piperidyl]methyl]phenyl]piperazin-1-yl]-3-oxo-propoxy]propanoylamino]-3,3-dimethyl-butanoyl]-N-[rac-(1S)-1-[4-(4-methylthiazol-5-yl)phenyl]ethyl]pyrrolidine-2-carboxamide] | 70 | 589
Cc1ncsc1-c1ccc([C@H](C)NC(=O)[C@@H]2C[C@@H](O)CN2C(=O)[C@@H](NC(=O)CCC(=O)N2CCN(c3ccc(CN4CCCC(Oc5cc(-c6ccccc6O)nnc5N)C4)cc3)CC2)C(C)(C)C)cc1 (mixture of isomers) [Example 39, rac-(2S,4R)-4-hydroxy-1-[rac-(2S)-2-[[4-[4-[4-[[3-[3-amino-6-(2-hydroxyphenyl)pyridazin-4-yl]oxy-1-piperidyl]methyl]phenyl]piperazin-1-yl]-4-oxo-butanoyl]amino]-3,3-dimethyl-butanoyl]-N-[rac-(1S)-1-[4-(4-methylthiazol-5-yl)phenyl]ethyl]pyrrolidine-2-carboxamide] | 48 | 426
Cc1ncsc1-c1ccc([C@H](C)NC(=O)[C@@H]2C[C@@H](O)CN2C(=O)[C@@H](NC(=O)CCCCCC(=O)N2CCN(c3ccc(CN4CCCC(Oc5cc(-c6ccccc6O)nnc5N)C4)cc3)CC2)C(C)(C)C)cc1 (mixture of isomers) [Example 40, rac-(2S,4R)-4-hydroxy-1-[rac-(2S)-2-[[7-[4-[4-[[3-[3-amino-6-(2-hydroxyphenyl)pyridazin-4-yl]oxy-1-piperidyl]methyl]phenyl]piperazin-1-yl]-7-oxo-heptanoyl]amino]-3,3-dimethyl-butanoyl]-N-[rac-(1S)-1-[4-(4-methylthiazol-5-yl)phenyl]ethyl]pyrrolidine-2-carboxamide] | 46 | 349
